Values after ≈ are worked out from the molar mass of the structure shown.
Columns and labels:
Format in all cases: functional
Pyricularia oryzae [1] = assay: Fungicidal activity against Magnaporthe oryzae by agar dilution method
Pyricularia oryzae [2] = assay: Fungicidal activity against Magnaporthe oryzae in rice seedlings assessed as control of rice blast at 250 ppm by curative foliar treatment
Nakataea oryzae = assay: Fungicidal activity against Magnaporthe salvinii by agar dilution method
Podosphaera fuliginea [3] = assay: Fungicidal activity against Podosphaera fuliginea in cucumber assessed as control of cucumber powdery mildew at 62.5 ppm measured after 10 days of inoculation
Pyricularia oryzae [4] = assay: Fungicidal activity against Magnaporthe oryzae in rice seedlings assessed as control of rice blast at 500 ppm by preventive foliar treatment
Podosphaera fuliginea [5] = assay: Fungicidal activity against Podosphaera fuliginea in cucumber assessed as control of cucumber powdery mildew at 125 ppm measured after 7 days of inoculation
Podosphaera fuliginea [6] = assay: Fungicidal activity against Podosphaera fuliginea in cucumber assessed as control of cucumber powdery mildew at 125 ppm measured after 10 days of inoculation
Podosphaera fuliginea [7] = assay: Fungicidal activity against Podosphaera fuliginea in cucumber assessed as control of cucumber powdery mildew at 62.5 ppm measured after 7 days of inoculation
Pyricularia oryzae [8] = assay: Fungicidal activity against Magnaporthe oryzae in rice seedlings assessed as control of rice blast at 500 ppm by curative foliar treatment

SMILES | MIC (Pyricularia oryzae [1]) [µg/mL] | Activity (Pyricularia oryzae [2]) [%] | MIC (Nakataea oryzae) [µg/mL] | Activity (Podosphaera fuliginea [3]) [%] | Activity (Pyricularia oryzae [4]) [%] | Activity (Podosphaera fuliginea [5]) [%] | Activity (Podosphaera fuliginea [6]) [%] | Activity (Podosphaera fuliginea [7]) [%] | Activity (Pyricularia oryzae [8]) [%]
Cc1cc(O)nc(-n2nc(C)cc2C)n1 | 12.5 (≈ 61.2 µM) | 69 | – | – | – | – | – | – | –
Cc1cc(C)n(-c2nc(C)c(C)c(O)n2)n1 | 12.5 (≈ 57.3 µM) | 0 | 100 (≈ 458 µM) | – | – | – | – | – | –
CCCCc1c(C)nc(-n2nc(C)cc2C)nc1O | 6.25 (≈ 24 µM) | – | 0.1 (≈ 0.384 µM) | 100 | 48 | 100 | 100 | 100 | 99
Cc1cc(C)n(-c2nc(C)c(CC(C)C)c(O)n2)n1 | 6.25 (≈ 24 µM) | – | 0.78 (≈ 3 µM) | 99.4 | 93 | 100 | 100 | 100 | 98
CCCCCc1c(C)nc(-n2nc(C)cc2C)nc1O | 6.25 (≈ 22.8 µM) | – | 0.2 (≈ 0.729 µM) | 100 | 81 | 100 | 100 | 100 | 94
CCCCCCc1c(C)nc(-n2nc(C)cc2C)nc1O | 6.25 (≈ 21.7 µM) | – | 6.25 (≈ 21.7 µM) | 98.4 | 81 | 100 | 100 | 99.4 | 89
Cc1cc(C)n(-c2nc(O)c3c(n2)CCC3)n1 | 6.25 (≈ 27.1 µM) | 15 | 6.25 (≈ 27.1 µM) | – | 13 | – | – | – | –
Cc1cc(C)n(-c2nc(O)c3c(n2)CCCC3)n1 | 3.12 (≈ 12.8 µM) | 0 | – | – | 0 | – | – | – | –
C=CCc1c(C)nn(-c2nc(C)cc(C)n2)c1C | 100 (≈ 413 µM) | – | 25 (≈ 103 µM) | – | 85 | – | – | – | 99
Cc1cc(C)n(-c2nc(C)c(C)c(C)n2)n1 | 50 (≈ 231 µM) | – | 100 (≈ 462 µM) | – | 65 | – | – | – | 78
Cc1cc(C)nc(-n2ncc3ccccc32)n1 | 50 (≈ 223 µM) | – | 25 (≈ 111 µM) | – | 31 | – | – | – | 96
Cc1cc(C)nc(-n2nc3c(c2C)CCCC3)n1 | 12.5 (≈ 51.6 µM) | – | 12.5 (≈ 51.6 µM) | – | 84 | – | – | – | 99
Cc1nc(-n2nc(C)c(C)c2C)nc(C)c1C | 50 (≈ 217 µM) | – | 50 (≈ 217 µM) | – | 81 | – | – | – | 99
Cc1cc(C)nc(-n2nc(C)c(C)c2C)n1 | 100 (≈ 462 µM) | – | 50 (≈ 231 µM) | – | 81 | – | – | – | 99
Cc1ccnc(-n2nc(C)c(C)c2C)n1 | 50 (≈ 247 µM) | – | 50 (≈ 247 µM) | – | 63 | – | – | – | 100
CCc1c(C)nn(-c2nc(C)cc(C)n2)c1C | 50 (≈ 217 µM) | – | 50 (≈ 217 µM) | – | 100 | – | – | – | 100
CCCc1c(C)nn(-c2nc(C)cc(C)n2)c1C | 25 (≈ 102 µM) | – | 12.5 (≈ 51.2 µM) | – | 90 | – | – | – | 98
Cc1cc(C)nc(-n2nc(C)c(CC(C)C)c2C)n1 | 6.25 (≈ 24.2 µM) | – | 6.25 (≈ 24.2 µM) | – | 90 | – | – | – | 100
CCCCc1c(C)nc(N(C)C)nc1O [DIMETHIRIMOL] | – | – | – | 100 | – | 100 | 100 | 100 | –
CCCCc1c(C)nc(NCC)[nH]c1=O [ETHIRIMOL] | – | – | – | 100 | – | 100 | 100 | 100 | –

Reference: ChEMBL document CHEMBL3045726, “Fungicidal Activity of Pyrazolylpyrimidines” (1990)
